Measurements: BindingDB's records for patent US20240101552 (Shanghai Pharmaceuticals Holding Co., 2024)

Molecular target: T1, LanC-like protein 2 (Homo sapiens, UniProt Q9NS86)
T1 sequence (Q9NS86 whole entry): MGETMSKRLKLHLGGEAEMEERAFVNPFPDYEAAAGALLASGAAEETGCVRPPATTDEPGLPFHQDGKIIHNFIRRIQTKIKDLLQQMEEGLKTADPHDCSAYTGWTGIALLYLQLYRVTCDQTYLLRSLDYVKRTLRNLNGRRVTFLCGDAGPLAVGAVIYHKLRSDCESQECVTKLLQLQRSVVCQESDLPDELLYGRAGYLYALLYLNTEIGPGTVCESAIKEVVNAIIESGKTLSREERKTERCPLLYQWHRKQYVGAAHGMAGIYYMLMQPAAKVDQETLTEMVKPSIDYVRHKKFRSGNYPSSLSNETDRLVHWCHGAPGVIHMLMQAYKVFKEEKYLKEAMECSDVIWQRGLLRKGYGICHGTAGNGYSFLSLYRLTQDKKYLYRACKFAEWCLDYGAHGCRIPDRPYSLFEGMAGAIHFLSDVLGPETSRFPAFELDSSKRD
Experiment: Receptor Binding Assay
Experimental: 1. […] The kinetic parameters of small molecules BT-11 and L-1 to 60 (analytes) binding to LANCL2 (ligand) were determined using BIACORE S200. Data were generated in triplicate in a dose-dependent manner (5-8 titration points) and analyzed to determine binding models (Langmuir, conformational shifts, etc.), real-time association and dissociation constants, and equilibrium dissociation constants. SPR technology allows the validation of specific LANCL2-phytochemical interactions as well as an increased insight into the gold standard of binding mechanisms and rates. Experiments were performed on carboxymethyl polydextrose (CM5) sensor chips by amine-coupled covalent attachment of LANCL2. Data were analyzed with BIACORE S200T200 evaluation software (version 1), so as to determine affinity binding constants (KD) using a 1:1 binding model.

SMILES	Kd [µM]
O=C(Nc1ccccc1NC(=O)c1cccc(-c2cn3ccccc3n2)c1)c1cccc(-c2cn3ccccc3n2)c1 [US20240101552, Compound L-1]	4.46
O=C(NC1C2CN(C(=O)c3cccc(-c4nc5ccccc5[nH]4)n3)CC21)c1ccnc(Nc2ccccn2)n1 [US20240101552, Compound L-25]	2.01
O=C(NC1CCN(C(=O)c2cccc(Nc3ccccc3)n2)CC1)c1cccc(Nc2ccccc2)n1 [US20240101552, Compound L-114]	10.8
O=C(N[C@H]1[C@@H]2CN(C(=O)c3cccc(-c4cn5ccccc5n4)c3)C[C@@H]21)c1cccc(-c2cn3ccccc3n2)c1 [US20240101552, Compound L-89]	2.53
O=C(c1ccnc(Nc2ccccn2)c1)N1CC2CN(C(=O)c3cccc(-c4nc5ccccc5[nH]4)n3)CC2C1 [US20240101552, Compound L-53]	36
O=C(Nc1cccc(-c2cn3ccccc3n2)c1)N1CCN(C(=O)c2cccc(-c3nc4ccccc4[nH]3)n2)CC1 [US20240101552, Compound L-118]	8.73
O=C(c1cccc(-c2cn3ccccc3n2)c1)N1CCC2(CC1)CCN(C(=O)c1cccc(-c3nc4ccccc4[nH]3)n1)CC2 [US20240101552, Compound L-3]	6.92
O=C(NC1CCN(C(=O)c2ccnc(Nc3ccccc3)n2)CC1)c1ccnc(Nc2ccccn2)n1 [US20240101552, Compound L-99]	5.41
O=C(c1cccc([N+](=O)[O-])c1)N1CCC2(CC1)CCN(C(=O)c1cccc(-c3nc4ccccc4[nH]3)n1)CC2 [US20240101552, Compound L-40]	3.21
O=C(c1cccc(-c2nc3ccccc3[nH]2)n1)N1CCC2(CC1)CCN(C(=O)c1ccnc(N3CCOCC3)n1)CC2 [US20240101552, Compound L-15]	2.3
O=C(N[C@H]1[C@@H]2CN(C(=O)c3n[nH]c4ccccc34)C[C@@H]21)c1cccc(-c2cn3ccccc3n2)c1 [US20240101552, Compound L-106]	4.32
O=C(N[C@H]1[C@@H]2CN(C(=O)c3cccc(Nc4ccccc4)n3)C[C@@H]21)c1ccnc(Nc2ccccc2)n1 [US20240101552, Compound L-103]	24.1
O=C(c1cccc(-c2nc3ccccc3[nH]2)n1)N1CC2CN(C(=O)c3ccnc(N4CCOCC4)n3)CC2C1 [US20240101552, Compound L-16]	84.9
O=C(c1cccc(-c2nc3ccccc3[nH]2)n1)N1CC2CN(C(=O)c3ccnc(Nc4ccccc4)n3)CC2C1 [US20240101552, Compound L-24]	57.3
O=C(N[C@H]1[C@@H]2CN(C(=O)c3cccnc3Oc3ccccc3)C[C@@H]21)c1cccc(-c2cn3ccccc3n2)c1 [US20240101552, Compound L-105]	17.5
O=C(c1cccc(Nc2ccccc2)n1)N1CCC2(CCN(C(=O)c3cccc(-c4nc5ccccc5[nH]4)n3)CC2)C1 [US20240101552, Compound L-61]	23.2
O=C(NC1CCN(C(=O)c2cccc(-c3nc4ccccc4[nH]3)n2)CC1)c1cccc(-c2cn3ccccc3n2)c1 [US20240101552, Compound L-5]	17
O=C(c1ccnc(Nc2ccccc2)n1)N1CCC2(CC1)CCN(C(=O)c1ccnc(Nc3ccccn3)n1)CC2 [US20240101552, Compound L-98]	12.2
O=C(c1cccc(-c2nc3ccccc3[nH]2)n1)N1CC2CN(C(=O)c3cccc(-c4nc5ccccc5[nH]4)n3)CC2C1 [US20240101552, Compound L-10]	18.4

Now from value to compound:

Kd [µM]	SMILES
16.8	O=C(c1cccc(-c2cn3ccccc3n2)c1)N1CC2CN(C(=O)c3cccc(-c4nc5ccccc5[nH]4)n3)CC2C1 [US20240101552, Compound L-55]
65.8	O=C(c1cccc(-c2nc3ccccc3[nH]2)n1)N1CC2CN(C(=O)c3ccnc(Nc4ccccn4)n3)CC2C1 [US20240101552, Compound L-26]
0.719	O=C(NC1C2CN(C(=O)c3cccc(-c4cn5ccccc5n4)c3)CC21)c1cccc(-c2nc3ccccc3[nH]2)n1 [US20240101552, Compound L-2]
9.09	O=C(NC1CCN(C(=O)c2cccc(-c3nc4ccccc4[nH]3)n2)CC1)c1cccc([N+](=O)[O-])c1 [US20240101552, Compound L-38]
27.6	O=C(c1cccc([N+](=O)[O-])c1)N1CC2CN(C(=O)c3cccc(-c4nc5ccccc5[nH]4)n3)CC2C1 [US20240101552, Compound L-41]
8.31	O=C(c1cccc(Nc2ccccc2)n1)N1CCC2(CC1)CCN(C(=O)c1cccc(-c3nc4ccccc4[nH]3)n1)CC2 [US20240101552, Compound L-45]
29.5	O=C(c1cccc(Nc2ccccc2)n1)N1CC2CN(C(=O)c3ccnc(Nc4ccccc4)n3)CC2C1 [US20240101552, Compound L-102]
40	O=C(c1cccc(-c2cn3ccccc3n2)c1)N1CC2CC1CN2C(=O)c1cccc(-c2nc3ccccc3[nH]2)n1 [US20240101552, Compound L-4]
6.33	O=C(C1CCCN1C(=O)c1cccc(-c2cn3ccccc3n2)c1)N1CC2CN(c3ccc([N+](=O)[O-])cc3)CC2C1 [US20240101552, Compound L-39]
13.3	O=C(NC1CCN(C(=O)c2cccc(-c3nc4ccccc4[nH]3)n2)CC1)c1cccc(Nc2ccccc2)n1 [US20240101552, Compound L-47]
9.5	O=C(N[C@H]1[C@@H]2CN(C(=O)c3cccc(Nc4ccccc4)n3)C[C@@H]21)c1cccc(-c2cn3ccccc3n2)c1 [US20240101552, Compound L-90]
49.2	O=C(c1cccc(-c2cn3ccccc3n2)c1)N1CC2CN(C(=O)c3ccnc(Nc4ccccc4)n3)CC2C1 [US20240101552, Compound L-43]
